Reference: ChEMBL document CHEMBL4049397, “Design, synthesis and evaluation of derivatives based on pyrimidine scaffold as potent Pan-Raf inhibitors to overcome resistance” (Eur J Med Chem, 2017)

Experiment: in vitro
Conditions: human, liver microsomes

half-life at 0.5 µM: 336 min
SMILES: CNC(=O)c1cc(Oc2ccc(NC(=O)Nc3ccc(Cl)c(C(F)(F)F)c3)cc2)ccn1 [SORAFENIB]
